Among the data in ChEMBL document CHEMBL1146699, “P3 cap modified Phe*-Ala series BACE inhibitors” (Bioorg Med Chem Lett, 2004) are IC50 and Selectivity values, retold here.

For orientation: IC50 means the midpoint of a concentration-inhibition curve.

In experiment [1] the target is Beta-secretase 1 (Homo sapiens, UniProt P56817). Description: In vitro inhibitory activity against Beta-secretase 1 in human HEK293 cells. Type of experiment: cell-based.
Experiment [2] concerns HEK293. As to the kind of experiment: Inhibitory activity against beta-amyloid (Abeta) peptide in human HEK293/APP751swe cells; Range 4.8-7.5. It is filed as functional, cell-based.
Experiment [3] has as its system HEK293. Description: Inhibitory activity against beta-amyloid (Abeta) peptide in human HEK293/APP751swe cells. Type of experiment: functional, cell-based.
Experiment [4] addresses T1, Beta-secretase 2 (Homo sapiens) (UniProt Q9Y5Z0).
T1 sequence (whole entry): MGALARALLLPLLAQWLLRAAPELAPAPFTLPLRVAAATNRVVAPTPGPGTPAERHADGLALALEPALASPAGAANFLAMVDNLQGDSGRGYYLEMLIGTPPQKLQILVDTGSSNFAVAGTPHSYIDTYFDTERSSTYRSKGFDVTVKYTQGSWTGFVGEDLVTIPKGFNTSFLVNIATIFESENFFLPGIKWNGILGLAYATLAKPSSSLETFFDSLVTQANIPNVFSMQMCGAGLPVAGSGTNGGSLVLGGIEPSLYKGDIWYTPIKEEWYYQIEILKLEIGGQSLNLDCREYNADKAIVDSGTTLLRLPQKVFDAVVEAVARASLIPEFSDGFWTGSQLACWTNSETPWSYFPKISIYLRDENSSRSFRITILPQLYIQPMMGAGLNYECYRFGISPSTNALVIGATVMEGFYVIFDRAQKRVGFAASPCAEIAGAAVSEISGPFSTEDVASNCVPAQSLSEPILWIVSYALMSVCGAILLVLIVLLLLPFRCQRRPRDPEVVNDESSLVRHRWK
Description: Selectivity tested against Beta-secretase 2 (BACE) in human.

Experiment [5] relates to HEK293. Description: Inhibitory activity against beta-amyloid (Abeta) peptide in human HEK293/APP751swe cells; Range 0.97-1.35. It is filed as functional, cell-based.

Chain of Beta-secretase 1 (P56817 whole entry): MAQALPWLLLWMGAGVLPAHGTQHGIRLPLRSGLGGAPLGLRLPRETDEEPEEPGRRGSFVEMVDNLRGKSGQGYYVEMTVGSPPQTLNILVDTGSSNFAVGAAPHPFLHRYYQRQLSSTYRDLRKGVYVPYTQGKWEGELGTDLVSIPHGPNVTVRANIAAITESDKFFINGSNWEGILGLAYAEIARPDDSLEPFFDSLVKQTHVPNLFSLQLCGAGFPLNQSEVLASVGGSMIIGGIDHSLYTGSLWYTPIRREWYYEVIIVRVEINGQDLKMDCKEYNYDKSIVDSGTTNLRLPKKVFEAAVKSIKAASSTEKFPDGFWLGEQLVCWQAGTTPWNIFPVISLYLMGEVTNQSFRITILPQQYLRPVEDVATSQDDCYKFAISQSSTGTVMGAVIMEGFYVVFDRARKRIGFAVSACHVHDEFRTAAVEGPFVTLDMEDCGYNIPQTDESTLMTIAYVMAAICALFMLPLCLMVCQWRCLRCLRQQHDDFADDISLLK

For the compound `CC(C)[C@H](O)C(=O)N[C@@H](C)C(=O)N[C@@H](Cc1ccccc1)[C@@H](O)C[C@@H](C)C(=O)N[C@H](C(=O)NCc1ccncc1)C(C)C`, the figures for the half-maximal inhibitory concentration (IC50) in experiment [1] and in experiment [2] were 0.13 µM and < 7.5 µM, respectively.

Turning to `CC[C@H](C)[C@H](O)C(=O)N[C@@H](CC(F)F)C(=O)N[C@@H](Cc1ccccc1)[C@@H](O)C[C@@H](CC(F)F)C(=O)N[C@H](C(=O)NCc1ccncc1)C(C)C`, the IC50 in experiment [1] is 3.18 µM; in experiment [3] it was > 37.5 µM.

Consider `CC(C[C@H](O)[C@H](Cc1ccccc1)NC(=O)[C@H](C)NC(=O)[C@@H](N)C(C)C)C(=O)NC(C(=O)NCc1ccncc1)C(C)C` (single isomer, unassigned), for which the half-maximal inhibitory concentration (IC50) in experiment [1] was found to be 0.19 µM; in experiment [3] it was 38.4 µM. This compound also yielded a Selectivity in experiment [4] of 0.52.

As for `CC[C@H](C)[C@H](O)C(=O)N[C@@H](C)C(=O)N[C@@H](Cc1ccccc1)[C@@H](O)CC(C)C(=O)N[C@H](C(=O)NCc1ccncc1)C(C)C` (single isomer, unassigned), the IC50 in experiment [1] amounted to 0.035 µM; in experiment [3], 1.23 µM.

Turning to `CC[C@H](C)[C@H](O)C(=O)N[C@@H](CC(C)C)C(=O)N[C@@H](Cc1ccccc1)[C@@H](O)CC(CC(C)C)C(=O)N[C@H](C(=O)NCc1ccncc1)C(C)C` (single isomer, unassigned), the results for the concentration for half-maximal inhibition (IC50) in experiment [1] and in experiment [3] were 0.176 µM and 3.7 µM, respectively.

In experiment [1], `CC(C[C@H](O)[C@H](Cc1ccccc1)NC(=O)[C@@H](NC(=O)[C@@H](O)C(C)C)C(C)C)C(=O)N[C@H](C(=O)NCc1ccncc1)C(C)C` (single isomer, unassigned) had an IC50 of 4.64 µM.

With `CC(C[C@H](O)[C@H](Cc1ccccc1)NC(=O)[C@H](C)NC(=O)[C@@H](O)C(C)C)C(=O)N[C@H](C(=O)NCc1ccccc1)C(C)C` (single isomer, unassigned), the half-maximal inhibitory concentration (IC50) in experiment [1] is 0.037 µM; in experiment [3] it was 6.3 µM.

As for `CC(C[C@H](O)[C@H](Cc1ccccc1)NC(=O)[C@H](CO)NC(=O)[C@@H](O)C(C)C)C(=O)N[C@H](C(=O)NCc1ccncc1)C(C)C` (single isomer, unassigned), the 50% inhibitory concentration (IC50) in experiment [1] turned out to be 0.35 µM; in experiment [3] it was 20 µM.

As for `CC[C@H](C)[C@H](O)C(=O)N[C@@H](CCC(F)F)C(=O)N[C@@H](Cc1ccccc1)[C@@H](O)CC(CCC(F)F)C(=O)N[C@H](C(=O)NCc1ccncc1)C(C)C` (single isomer, unassigned), the IC50 in experiment [1] was found to be 0.045 µM; in experiment [3], 1.08 µM.

`CC[C@H](C)[C@H](O)C(=O)N[C@@H](CCCF)C(=O)N[C@@H](Cc1ccccc1)[C@@H](O)CC(CCCF)C(=O)N[C@H](C(=O)NCc1ccncc1)C(C)C` (single isomer, unassigned): the 50% inhibitory concentration (IC50) in experiment [1] is 0.067 µM; in experiment [5], < 1.35 µM.

With `CC(C)C[C@H](O)C(=O)N[C@@H](C)C(=O)N[C@@H](Cc1ccccc1)[C@@H](O)CC(C)C(=O)N[C@H](C(=O)NCc1ccncc1)C(C)C` (single isomer, unassigned), the half-maximal inhibitory concentration (IC50) in experiment [1] was determined as 0.23 µM; in experiment [3], 16.9 µM.

For `CC(C[C@H](O)[C@H](Cc1ccccc1)NC(=O)[C@H](C)NC(=O)[C@@H](F)C(C)C)C(=O)N[C@H](C(=O)NCc1ccncc1)C(C)C` (single isomer, unassigned), the IC50 in experiment [1] amounted to 1.13 µM; in experiment [3], 49 µM.

As to `CSCC[C@H](NC(=O)[C@@H](O)C(C)C)C(=O)N[C@@H](Cc1ccccc1)[C@@H](O)CC(C)C(=O)N[C@H](C(=O)NCc1ccncc1)C(C)C` (single isomer, unassigned), the IC50 was determined as 0.35 µM in experiment [1] and 25.2 µM in experiment [3].

On to `CCC(C[C@H](O)[C@H](Cc1ccccc1)NC(=O)[C@H](C)NC(=O)[C@@H](O)C(C)C)C(=O)N[C@H](C(=O)N[C@H](C)c1ccccc1)C(C)C` (single isomer, unassigned), for which the IC50 in experiment [1] is 0.1 µM; in experiment [3], 13.6 µM.

On to `CC(C[C@H](O)[C@H](Cc1ccccc1)NC(=O)[C@H](C)NC(=O)[C@@H](O)CC(F)(F)F)C(=O)N[C@H](C(=O)NCc1ccncc1)C(C)C` (single isomer, unassigned), for which the IC50 in experiment [1] amounted to 0.22 µM; in experiment [3] it was 3.9 µM.

In the case of `CCC(C[C@H](O)[C@H](Cc1ccccc1)NC(=O)[C@H](C)NC(=O)[C@@H](O)C(C)C)C(=O)N[C@H](C(=O)N[C@@H](C)c1ccccc1)C(C)C` (single isomer, unassigned), the IC50 in experiment [1] came to 0.06 µM; in experiment [3] it was 19.8 µM.

For the compound `CCC[C@H](NC(=O)[C@@H](O)C(C)C)C(=O)N[C@@H](Cc1ccccc1)[C@@H](O)CC(C)C(=O)N[C@H](C(=O)NCc1ccncc1)C(C)C` (single isomer, unassigned), the IC50 in experiment [1] is 0.55 µM; in experiment [3] it was 30.4 µM.

As for `CC(C)CC(=O)N[C@@H](C)C(=O)N[C@@H](Cc1ccccc1)[C@@H](O)CC(C)C(=O)N[C@H](C(=O)NCc1ccncc1)C(C)C` (single isomer, unassigned), the values for the IC50 in experiment [1] and in experiment [3] were 1.74 µM and > 100 µM, respectively.

The compound `CC(C[C@H](O)[C@H](Cc1ccccc1)NC(=O)[C@H](COC(C)(C)C)NC(=O)[C@@H](O)C(C)C)C(=O)N[C@H](C(=O)NCc1ccncc1)C(C)C` (single isomer, unassigned) showed an IC50 in experiment [1] of 4.49 µM.
